Type in all cases: cell-based
Experiment [1] deals with E. coli ATCC25922. Kind of experiment: Bacterial growth minimal inhibitory concentration (microdilution, cation-adjusted Mueller-Hinton Broth). The following applies: quinolone-sensitive strain; for MIC: Escherichia coli, ATCC25922, read-out: MIC for E. coli ATCC25922. The method, boiled down:
(§1)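 Broth microdilution in cation-adjusted Mueller-Hinton Broth per CLSI M7-A7, MIC in mg/L. K. pneumoniae A-651 is multiply resistant, including to quinolones. E. coli ATCC25922 and P. aeruginosa ATCC27853 are quinolone-sensitive.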
(In general: In broth dilution the organism is exposed to a series of concentrations in liquid medium.)

The subject of experiment [2] is K. pneumoniae A-651. Described as above. The following applies: multiply-resistant strain (in particular quinolone-resistant); for MIC: Klebsiella pneumoniae, A651, read-out: MIC for K. Pneumoniae A-651. Summed up: as §1
Experiment [3] has as its system P. aeruginosa ATCC27853. The description is as above. The following applies: for MIC: Pseudomonas aeruginosa, ATCC27853, quinolone-sensitive strain, read-out: MIC for P. aeruginosa ATCC27853. Summed up:
as §1

Experiment [4] relates to wild-type E. coli A-1261. Kind of experiment: MIC against wild-type E. coli A-1261 with or without alkaline phosphatase or esterase. The following applies: Escherichia coli. The procedure:
Minimal Inhibitory Concentrations (MICs; mg/L) were determined in cation-adjusted Mueller-Hinton Broth by a microdilution method following the description given in “Methods for Dilution Antimicrobial Susceptibility Tests for Bacteria that Grow Aerobically”, Approved standard, 7th ed., a Clinical and Laboratory Standards Institute (CLSI) Document M7-A7, Wayne, Pa., USA (2006).
The compounds of Examples 37, 50, 51 and 74 were tested against wild-type E. coli A-1261 in the absence of alkaline phosphatase or esterase, in the presence of an alkaline phosphatase and in the presence of an esterase. The corresponding antibacterial test results are given in Table 2 hereafter (MICs in mg/L).

Setting [5] is: read-out: MIC for E. coli A-1261 In the absence of alkaline phosphatase or esterase.
[6] abbreviates: read-out: MIC for E. coli A-1261 In the presence of an alkaline phosphatase (2 i.U./mL).
The mark [7] stands for this setting: read-out: MIC for E. coli A-1261 In the presence of an esterase (10 i.U./mL).

Converted amounts (≈) assume the structure as drawn. Like-named read-outs stand apart in the source and are kept apart here.

As for `CN(C)CC(=O)OCC1(c2ccc(C#Cc3cc4n(c3)C(=O)N(CC[C@](C)(C(=O)NO)S(C)(=O)=O)C4)cc2)CC1.Cl` [Example 37, (R)-(1-(4-((2-(4-(hydroxyamino)-3-methyl-3-(methylsulfonyl)-4-oxobutyl)-3-oxo-2,3-dihydro-1H-pyrrolo[1,2-c]imidazol-6-yl)ethynyl)phenyl)cyclopropyl)methyl dimethylglycinate hydrochloride], the MIC stood at 0.5 µg/mL in experiment [1]; 1 µg/mL in experiment [2]; 4 µg/mL in experiment [3]; 0.25 µg/mL in experiment [4] (setting [5]); 0.125 µg/mL in experiment [4] (setting [6]); 0.25 µg/mL in experiment [4] (setting [7]).
In the case of `C[C@@](CCN1Cc2cc(C#CC#CC3(COP(=O)(O)O)CC3)cn2C1=O)(C(=O)NO)S(C)(=O)=O` [Example 51, (R)-(1-((2-(4-(hydroxyamino)-3-methyl-3-(methylsulfonyl)-4-oxobutyl)-3-oxo-2,3-dihydro-1H-pyrrolo[1,2-c]imidazol-6-yl)buta-1,3-diyn-1-yl)cyclopropyl)methyl dihydrogen phosphate], the figures for the MIC in experiment [4] (setting [5]), in experiment [4] (setting [6]) and in experiment [4] (setting [7]) were greater than 16 µg/mL, 0.5 µg/mL and 16 µg/mL, respectively.
For `C[C@@](CCN1Cc2cc(C#CC#CC3(NC(=O)OCOP(=O)(O)O)CC3)cn2C1=O)(C(=O)NO)S(C)(=O)=O` [Example 74, (phosphonooxy)methyl (R)-(1-((2-(4-(hydroxyamino)-3-methyl-3-(methylsulfonyl)-4-oxobutyl)-3-oxo-2,3-dihydro-1H-pyrrolo[1,2-c]imidazol-6-yl)buta-1,3-diyn-1-yl)cyclopropyl)carbamate], in that order: 4 µg/mL (≈ 6.99 µM), 0.25 µg/mL and 4 µg/mL.
On to `C[C@@](CCN1Cc2cc(C#Cc3ccc(C(F)(F)CO)cc3)cn2C1=O)(C(=O)NO)S(C)(=O)=O` [Example 44, (R)-4-(6-((4-(1,1-difluoro-2-hydroxyethyl)phenyl)ethynyl)-3-oxo-1H-pyrrolo[1,2-c]imidazol-2(3H)-yl)-N-hydroxy-2-methyl-2-(methylsulfonyl)butanamide], for which the MIC in experiment [1] was no more than 0.063 µg/mL; in experiment [2], 0.25 µg/mL (≈ 0.505 µM); in experiment [3] it was 1 µg/mL (≈ 2.02 µM).
`CN(C)CC(=O)OCC1(C#CC#Cc2cc3n(c2)C(=O)N(CC[C@](C)(C(=O)NO)S(C)(=O)=O)C3)CC1.Cl` [Example 50, (R)-(1-((2-(4-(hydroxyamino)-3-methyl-3-(methylsulfonyl)-4-oxobutyl)-3-oxo-2,3-dihydro-1H-pyrrolo[1,2-c]imidazol-6-yl)buta-1,3-diyn-1-yl)cyclopropyl)methyl dimethylglycinate hydrochloride]: the MIC turned out to be 2 µg/mL in experiment [4] (setting [5]), 1 µg/mL in experiment [4] (setting [6]) and 0.5 µg/mL in experiment [4] (setting [7]).
For the molecule `C[C@@](CCN1Cc2cc(C#CC#CC3CN(C4COC4)C3)cn2C1=O)(C(=O)NO)S(C)(=O)=O` [Example 83, (R)-N-hydroxy-2-methyl-2-(methylsulfonyl)-4-(6-((1-(oxetan-3-yl)azetidin-3-yl)buta-1,3-diyn-1-yl)-3-oxo-1H-pyrrolo[1,2-c]imidazol-2(3H)-yl)butanamide], the MIC amounted to 0.5 µg/mL (≈ 1.05 µM) in experiment [1], 0.5 µg/mL (≈ 1.05 µM) in experiment [2] and 1 µg/mL (≈ 2.11 µM) in experiment [3].
In the case of `C[C@@](CCN1Cc2cc(C#CC#CC3CN(C(=O)CO)C3)cn2C1=O)(C(=O)NO)S(C)(=O)=O` [Example 62, (R)-N-hydroxy-4-(6-((1-(2-hydroxyacetyl)azetidin-3-yl)buta-1,3-diyn-1-yl)-3-oxo-1H-pyrrolo[1,2-c]imidazol-2(3H)-yl)-2-methyl-2-(methylsulfonyl)butanamide], the MIC in experiment [1] amounted to 1 µg/mL (≈ 2.1 µM); in experiment [2], 4 µg/mL (≈ 8.39 µM); in experiment [3], 1 µg/mL (≈ 2.1 µM).
Regarding `C[C@@](CCN1Cc2cc(C#CC#CC3(COC(=O)OCOP(=O)(O)O)CC3)cn2C1=O)(C(=O)NO)S(C)(=O)=O` [Example 75, (R)-(1-((2-(4-(hydroxyamino)-3-methyl-3-(methylsulfonyl)-4-oxobutyl)-3-oxo-2,3-dihydro-1H-pyrrolo[1,2-c]imidazol-6-yl)buta-1,3-diyn-1-yl)cyclopropyl)methyl((phosphonooxy)methyl)carbonate], in experiment [1], the “MIC for E. coli ATCC25922” value stood at 1 µg/mL. The “MIC for K. Pneumoniae A-651” value in experiment [2] was found to be 2 µg/mL. Moreover, in experiment [3] (quinolone-sensitive strain), the “MIC for P. aeruginosa ATCC27853” value was 2 µg/mL.
`C[C@@](CCN1Cc2cc(C#Cc3ccc(C4(CN5CCOCC5)CC4)cc3)cn2C1=O)(C(=O)NO)S(C)(=O)=O` [Example 26, (R)-N-hydroxy-2-methyl-2-(methylsulfonyl)-4-(6-((4-(1-(morpholinomethyl)cyclopropyl)phenyl)ethynyl)-3-oxo-1H-pyrrolo[1,2-c]imidazol-2(3H)-yl)butanamide]: the MIC worked out at 1 µg/mL (≈ 1.8 µM) in experiment [1], 1 µg/mL (≈ 1.8 µM) in experiment [2] and 4 µg/mL (≈ 7.21 µM) in experiment [3].
Regarding `C[C@@](CCN1Cc2cc(C#Cc3ccc(C4(N)CC4)s3)cn2C1=O)(C(=O)NO)S(C)(=O)=O` [Example 68, (R)-4-(6-((5-(1-aminocyclopropyl)thiophen-2-yl)ethynyl)-3-oxo-1H-pyrrolo[1,2-c]imidazol-2(3H)-yl)-N-hydroxy-2-methyl-2-(methylsulfonyl)butanamide], the MIC in experiment [1] came out at 0.125 µg/mL (≈ 0.262 µM); in experiment [2], 0.125 µg/mL (≈ 0.262 µM); in experiment [3], 1 µg/mL (≈ 2.1 µM).
Take `C[C@@](CCN1Cc2cc(C#Cc3ccc(C4(CO)CC4)cc3F)cn2C1=O)(C(=O)NO)S(C)(=O)=O` [Example 19, (R)-4-(6-((2-fluoro-4-(1-(hydroxymethyl)cyclopropyl)phenyl)ethynyl)-3-oxo-1H-pyrrolo[1,2-c]imidazol-2(3H)-yl)-N-hydroxy-2-methyl-2-(methylsulfonyl)butanamide]: the MIC in experiment [1] was determined as 0.25 µg/mL (≈ 0.496 µM); in experiment [2], 0.5 µg/mL (≈ 0.993 µM); in experiment [3], 1 µg/mL (≈ 1.99 µM).

The record behind these values is patent US10106544B2, “1,2-dihydro-3H-pyrrolo[1,2-C]imidazol-3-one derivatives and their use as antibacterial agents” (priority 2014, dated 2018).
